From PubChem BioAssay AID330 (DTP/NCI, 2004)
Values joined by “and” are separate entries in the source; they are usually repeats but may differ in a detail not shown here. Equal values may be shown once. Toxic doses and inconclusive results are not listed. The calls were made as follows: active = survival T/C of 150% or more; inactive = T/C below 125% in these data.

System: P388 leukemia ip, CD2F1 mice, survival T/C
Test: NCI In Vivo Anticancer Drug Screen. Data for tumor model P388 Leukemia (intraperitoneal) in CD2F1 (CDF1) mice
Conditions: endpoint: median survival time, higher = longer survival
In short: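 Mice carrying the transplanted tumor received test compound or vehicle. Survival was recorded in each group, and the value is the treated-group measurement divided by that of the vehicle-treated control group.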

[1] = dose: 50.0 mg/kg/injection, schedule: Q01DX005 (ip), vehicle: Klucel (hydroxypropylcellulose) (HPC)
[2] = dose: 100.0 mg/kg/injection, schedule: Q01DX005 (ip), vehicle: Klucel (hydroxypropylcellulose) (HPC)
[3] = dose: 200.0 mg/kg/injection, schedule: Q01DX005 (ip), vehicle: Klucel (hydroxypropylcellulose) (HPC)
[4] = dose: 100.0 mg/kg/injection, schedule: Q04DX003 (ip), vehicle: saline with Tween-80
[5] = dose: 200.0 mg/kg/injection, schedule: Q04DX003 (ip), vehicle: saline with Tween-80
[6] = dose: 100.0 mg/kg/injection, schedule: Q01DX009 (ip), vehicle: saline with Tween-80
[7] = dose: 200.0 mg/kg/injection, schedule: Q01DX009 (ip), vehicle: saline with Tween-80
[8] = dose: 50.0 mg/kg/injection, schedule: Q01DX005 (ip), vehicle: saline with Tween-80
[9] = dose: 100.0 mg/kg/injection, schedule: Q01DX005 (ip), vehicle: saline with Tween-80
[10] = dose: 200.0 mg/kg/injection, schedule: Q01DX005 (ip), vehicle: saline with Tween-80
[11] = dose: 25.0 mg/kg/injection, schedule: Q01DX009 (ip), vehicle: saline with Tween-80
[12] = dose: 50.0 mg/kg/injection, schedule: Q01DX009 (ip), vehicle: saline with Tween-80
[13] = dose: 6.25 mg/kg/injection, schedule: Q01DX005 (ip), vehicle: saline with Tween-80
[14] = dose: 12.5 mg/kg/injection, schedule: Q01DX005 (ip), vehicle: saline with Tween-80

Measured: T/C

C=CCCC(=O)CCCC(=O)O[C@@H]1[C@@H]2[C@H](CC1(C)C)[C@H](O)[C@@]13O[C@@H]1[C@H](O)[C@@]1(CO1)[C@@]23C
inactive: dose: 6.2 micrograms/kg/injection, schedule: Q01DX009 (ip), vehicle: saline + alcohol 98 % of control | dose: 6.3 micrograms/kg/injection, schedule: Q01DX009 (ip), vehicle: Klucel (hydroxypropylcellulose) (HPC) 110 % of control | dose: 12.5 micrograms/kg/injection, schedule: Q01DX009 (ip), vehicle: Klucel (hydroxypropylcellulose) (HPC) 110 % of control | dose: 12.5 micrograms/kg/injection, schedule: Q01DX009 (ip), vehicle: saline + alcohol 101 % of control | dose: 25.0 micrograms/kg/injection, schedule: Q01DX005 (ip), vehicle: Klucel (hydroxypropylcellulose) (HPC) 100 % of control | dose: 25.0 micrograms/kg/injection, schedule: Q01DX009 (ip), vehicle: Klucel (hydroxypropylcellulose) (HPC) 100 % of control | dose: 25.0 micrograms/kg/injection, schedule: Q01DX009 (ip), vehicle: saline + alcohol 98 % of control | dose: 50.0 micrograms/kg/injection, schedule: Q01DX005 (ip), vehicle: Klucel (hydroxypropylcellulose) (HPC) 101 % of control | dose: 50.0 micrograms/kg/injection, schedule: Q01DX009 (ip), vehicle: Klucel (hydroxypropylcellulose) (HPC) 98 % of control | dose: 50.0 micrograms/kg/injection, schedule: Q01DX009 (ip), vehicle: saline + alcohol 97 % of control | dose: 100.0 micrograms/kg/injection, schedule: Q01DX005 (ip), vehicle: Klucel (hydroxypropylcellulose) (HPC) 99 % of control | dose: 200.0 micrograms/kg/injection, schedule: Q01DX005 (ip), vehicle: Klucel (hydroxypropylcellulose) (HPC) 100 % of control | dose: 400.0 micrograms/kg/injection, schedule: Q01DX005 (ip), vehicle: Klucel (hydroxypropylcellulose) (HPC) 111 % of control

c1cnc(NC(Nc2cnccn2)C2CCCCC2)cn1
inactive: dose: 60.0 mg/kg/injection, schedule: Q01DX005 (ip), vehicle: Klucel (hydroxypropylcellulose) (HPC) 96 % of control | dose: 120.0 mg/kg/injection, schedule: Q01DX005 (ip), vehicle: Klucel (hydroxypropylcellulose) (HPC) 100 % of control | dose: 240.0 mg/kg/injection, schedule: Q01DX005 (ip), vehicle: Klucel (hydroxypropylcellulose) (HPC) 107 % of control

CCCn1c(C)nc2ncn(-c3ccccc3)c2c1=O
inactive: [1] 101 % of control | [2] 102 % of control | [3] 101 % of control

COS(=O)(=O)N(C)c1nc(N(C)C)nc(N(C)C)n1
inactive: dose: 50.0 mg/kg/injection, schedule: Q01DX005 (ip), vehicle: saline 96 % of control | dose: 100.0 mg/kg/injection, schedule: Q01DX005 (ip), vehicle: saline 108 % of control

CC(=O)SCCCCl
inactive: dose: 50.0 mg/kg/injection, schedule: Q04DX003 (ip), vehicle: saline with Tween-80 100 % of control | [4] 109 % of control | [5] 109 % of control

COC(=O)/C=C/N(Cc1ccccc1)Cc1ccccc1
inactive: [6] 100 % of control | [4] 95 % of control | [7] 100 % of control | [5] 95 % of control | dose: 400.0 mg/kg/injection, schedule: Q01DX009 (ip), vehicle: saline with Tween-80 100 % of control | dose: 400.0 mg/kg/injection, schedule: Q04DX003 (ip), vehicle: saline with Tween-80 95 % of control

Cc1c(C)c(C)c(S(=O)(=O)N2CCN(S(=O)(=O)c3c(C)c(C)c(C)c(C)c3C)CC2)c(C)c1C
inactive: [8] 100 % of control | [9] 97 % of control | [10] 96 % of control

COc1ccc2[nH]c(=O)c(Br)c(C)c2c1
inactive: [8] 101 % of control | [9] 95 % of control | [10] 100 % of control

O=C(CCl)Nc1nccs1
inactive: dose: 12.5 mg/kg/injection, schedule: Q01DX009 (ip), vehicle: saline with Tween-80 111 % of control | [11] 112 % of control | [12] 103 % of control | [6] 116 % of control

O=S1(=O)N=C(c2ccccc2)CC(c2ccccc2)N1 (stereo unspecified)
inactive: [12] 100 % of control | [6] 90 % of control | [7] 90 % of control

COc1cc(Br)c(C(=O)N2CCc3ccccc32)cc1OC
inactive: dose: 12.5 mg/kg/injection, schedule: Q01DX009 (ip), vehicle: other 93 % of control | dose: 25.0 mg/kg/injection, schedule: Q01DX009 (ip), vehicle: other 90 % of control

CC(C)Oc1ccc(C(=O)NS(=O)(=O)c2ccc(N=CC3C(=O)N(c4ccccc4)N(c4ccccc4)C3=O)cc2)cc1
inactive: dose: 100.0 mg/kg/injection, schedule: Q01DX009 (ip), vehicle: Klucel (hydroxypropylcellulose) (HPC) 92 % of control | dose: 200.0 mg/kg/injection, schedule: Q01DX009 (ip), vehicle: Klucel (hydroxypropylcellulose) (HPC) 86 % of control

Cc1cc(N=Nc2ccc(-c3ccc(N=Nc4ccc(O)c(C(=O)O)c4)cc3)cc2)c(N)c(N=Nc2ccc(C(=O)Nc3ccc(S(=O)(=O)O)cc3)cc2)c1N
inactive: [13] 100 % of control | [14] 101 % of control | dose: 25.0 mg/kg/injection, schedule: Q01DX005 (ip), vehicle: saline with Tween-80 101 % of control

Cc1cc(Br)ccc1N1C(=O)CC(Sc2ccccc2N)C1=O (stereo unspecified)
inactive: [1] 88 % of control | [2] 95 % of control | [3] 100 % of control

Nc1nc(N)c(-c2ccc(Cl)c(Cl)c2)c(CP(Cl)(Cl)(Cl)Br)n1
inactive: dose: 6.25 mg/kg/injection, schedule: Q01DX009 (ip), vehicle: Klucel (hydroxypropylcellulose) (HPC) 96 % of control | dose: 12.5 mg/kg/injection, schedule: Q01DX009 (ip), vehicle: Klucel (hydroxypropylcellulose) (HPC) 104 % of control | dose: 25.0 mg/kg/injection, schedule: Q01DX009 (ip), vehicle: Klucel (hydroxypropylcellulose) (HPC) 109 % of control | dose: 50.0 mg/kg/injection, schedule: Q01DX009 (ip), vehicle: Klucel (hydroxypropylcellulose) (HPC) 114 % of control

CN1NC(c2ccccc2)=C(C#N)C(=O)CC1c1ccccc1 (stereo unspecified)
inactive: dose: 60.0 mg/kg/injection, schedule: Q01DX005 (ip), vehicle: saline with Tween-80 96 % of control | dose: 120.0 mg/kg/injection, schedule: Q01DX005 (ip), vehicle: saline with Tween-80 95 % of control | dose: 240.0 mg/kg/injection, schedule: Q01DX005 (ip), vehicle: saline with Tween-80 104 % of control

O=C1c2ccccc2C(=O)c2c(NCCCC3CCCN4CCCCC34)cccc21 (stereo unspecified)
inactive: [1] 105 % of control | [2] 100 % of control

CCOc1cccc2c1C(O)(C#Cc1ccccc1)c1cccc(OCC)c1C2(O)C#Cc1ccccc1 (stereo unspecified)
inactive: dose: 100.0 mg/kg/injection, schedule: Q04DX002 (ip), vehicle: saline with Tween-80 87 % of control | dose: 200.0 mg/kg/injection, schedule: Q04DX002 (ip), vehicle: saline with Tween-80 87 % of control | dose: 400.0 mg/kg/injection, schedule: Q04DX002 (ip), vehicle: saline with Tween-80 91 % of control

CCOc1cc2c(OCc3ccccc3)cc3c4cc(OC)c(OC)cc4c[n+](C)c3c2cc1OC
inactive: dose: 3.12 mg/kg/injection, schedule: Q01DX005 (ip), vehicle: saline with Tween-80 118 % of control | [13] 112 % of control | [14] 91 % of control

CC(=O)OC(OC(C)=O)C(CSC#N)SC#N (stereo unspecified)
inactive: dose: 6.25 mg/kg/injection, schedule: Q01DX005 (ip), vehicle: Klucel (hydroxypropylcellulose) (HPC) 99 % of control | dose: 12.5 mg/kg/injection, schedule: Q01DX005 (ip), vehicle: Klucel (hydroxypropylcellulose) (HPC) 99 % of control | dose: 25.0 mg/kg/injection, schedule: Q01DX005 (ip), vehicle: Klucel (hydroxypropylcellulose) (HPC) 99 % of control | [1] 102 % of control | [2] 96 % of control | [3] 113 % of control

C/C(=N\NC(N)=O)c1cccc(/C(C)=N/NC(N)=O)n1
inactive: [11] 116 % of control | [12] 109 % of control and 118 % of control
